From US20140348966A1, “GARCINIA BUCHANANII BAKER COMPOUNDS, COMPOSITIONS AND RELATED METHODS” (priority 2011, published 2014) come the findings set out here.

Several values for one entry are separate records, joined by “and”; a condition that tells them apart may be missing. Identical values can stand only once. Counter-ions that a name gives are not always drawn.

Assay [1] deals with Wistar rats with high-lactose diet-induced diarrhea. In words: high-lactose diet (HLD) induced diarrhea in rats. Type of assay: in vivo. As to the method: A high-lactose (35%) diet induced diarrhea in Wistar rats, which were then treated with either G. buchananii bark extract (0.1, 0.5, 1.0 and 5.0 g bark powder) or its anti-motility fractions isolated using preparative thin layer chromatography; termed PTLC1 (15 mg) and PTLC5 (3.8 mg) or loperamide (8.4 mg), each dissolved in 1 liter of tap water. Numerous parameters were measured in each condition including consistency, fluid and mucus content of feces, body weight, water and food consumption, urine production and bloating.
The study was conducted in accordance with the regulations of the University of Idaho Institutional Animal Care and Use Committee (IACUC). Sixty two, 10 week old Wistar rats were obtained from Harlan Animal Research Laboratory (Hayward Calif., USA). Rats were individually caged (23-24° C.; 12:12 h light-dark cycle) and quarantined for one week. Rats were fed a standard chow diet ad libitum (Animal Specialties, Hubbard, Oreg., USA) and had free access to water for four days prior to the inducement of diarrhea. A high-lactose diet (HLD) containing 35% lactose in place of starch (3.004 Kcal; Purina Mills; Richmond, Ind., USA) was fed to 52 rats. Diarrhea was induced within 24-48 hours after consuming the diet. Rats were monitored for changes in consistency of pellets and stool mass, fecal fluid and urine production (mass; g and volume; ml). Rats were considered diarrheic if they produced watery stools, soft, yellowish stools compared to normal, pliable, soft, well-formed pellets as previously described by other researchers.
Four days after introducing rats to a HLD, diarrheic rats were treated using varying doses of G. buchananii extract, its anti-motility fractions isolated using preparative thin layer chromatoghraphy (PTLC1 & PTLC5) and loperamide for standard comparison. Rats were maintained on a HLD during the entire treatment period.
Garcinia buchananii bark powder was prepared from stem barks collected from trees in their natural habitat in Karagwe, Tanzania, as described previously by Balemba, OB and colleagues, 2010. A sample can be found at the University of Idaho Stillinger herbarium (voucher #159918). 0.1 g, 0.5 g, 1.0 g and 5.0 g of G. buchananii bark powder were each suspended in 1 L of tap water, stirred for 30 minutes and filtered. The filtrate was then immediately used to treat rats against lactose-induced diarrhea.
Twenty nine rats on a HLD were randomly assigned and treated with varying doses of G. buchananii extract (0.1 g, 0.5 g, 1 g, and 5 g extract; n=6-10 rats per group). Eight rats were treated with PTLC1 or PTLC5 (each n=4) at a dose of 15 mg and 3.8 mg in 100 mL tap water, respectively. For control treatments, seven rats were treated with loperamide (8.4 mg/L tap water), eight rats were left untreated (HLD control) and ten rats received control standard chow diets (SD). Rats were treated for a total of four days, receiving freshly made drugs every two days.
We studied the impact of a HLD and all the treatments on the consistency, form and appearance of feces. Body weight, food and water intake were measured every two days for the entire period. Diarrheic rats treated with G. buchananii (0.1 g/l, 1.0 g/l) and loperamide were used to study fecal fluid content, stool mass and urine production compared with untreated rats on a HLD and SD control diets (n=3-5). To achieve this, pellets/stools and urine were allowed to drop on non-leaking, polyester plastic mats spread in metal trays placed beneath wired cages housing rats. Pellets/stools and urine were collected every three hours, for 24 hours, for a 12-day period. Disposable polyethylene transfer pipettes (5.5 mL) were used to collect urine. Pellets/stools were collected by using custom-made pieces of Inkjet transparencies. The samples were stored in disposable, polypropylene containers (100 mL) tightly capped to avoid loss of moisture due to vaporization. […]

The next assay concerns guinea pig distal colon. As to the kind of experiment: fecal pellet propulsion motility assay in isolated distal colon (GIMM). As to the method: Gastrointestinal Motility Assays: Segments (˜10 cm long) of distal colon were pinned on either end in a Sylgard-lined 50 mL organ bath, continuously perfused with oxygenated Krebs solution (rate: 10 mL min^−1) and maintained at temperatures between 36 and 37° C. Tissues were initially allowed to equilibrate for 30 mins in re-circulating Krebs solution. Colonic motility was studied using the Gastronintestinal Motility Monitoring system (GIMM; Med-Associates Inc., Saint Albans, Vt., USA), which included a digital video camera (Catamount Research and Development Inc, St Albans, Vt., USA) to film fecal pellet propulsion. Trials were separated by 5-min recovery periods between successive pellet runs. The GIMM system software calculated velocities by tracking pellets as they traversed colon segments. After initial equilibration, five pellet propulsion trials in vehicle solution were obtained to determine the basal velocity for each tissue preparation. To reduce variations between runs and experiments, the values obtained were used to generate a normalized basal velocity by dividing the values of the 4th-5th runs by the value of the 1st-2nd runs. Garcinia buchananii stem bark extract and test compounds dissolved in 100 mL of Krebs solution were superfused either into the organ bath or into the lumen of the colon using polyethylene tubing [PE 205; outside diameter 9.5 mm (BD-Worldwide, Sparks, Md., USA)]. The effects of extract and test compounds were evaluated by obtaining velocities of four trials taken at 5-min intervals (5-20 min) Normalized velocity data for these treatments were obtained by dividing the test velocities acquired by the average velocity of the five pellet propulsion runs performed in vehicle solution (runs 1-5, above). Normalized data became ratios without units, and were presented as a percent velocity of basal activity for each tissue. Velocities of pellet propulsion were also studied during washout of tissue with Krebs solution (after extract or test compound application) for 20 min
A segment (˜10-12 cm long) of distal colon was pinned on either end in a Sylgard-lined 50 mL organ bath being continuously perfused with oxygenated Krebs solution (rate: 10 mL min^−1) and maintained at temperatures between 36-37° C. Nail-polish-coated guinea-pig pellets similar in shape and size to the “native” colonic fecal pellets were used to determine propulsive velocities using the Gastrointestinal Motility Monitoring system (Med-Associates Inc., Saint Albans, Vt., USA) for filming pellet propulsion as described by Hoffman and others (2010). Velocity was calculated based on the time required for pellets to traverse 5-6 cm of the central colon segment ending 1 cm from the aboral end. Data collection started after 30 minutes of equilibration. A five-minute interval was used to allow equilibration of motor activity between successive pellet runs. Baseline velocities were measured for 20 minutes.
In intraluminal studies, the aqueous extract was prepared by suspending 2 g of G. buchananii bark powder in 100 mL Krebs, whereas 1 g G. buchananii bark powder prepared in the same manner was used for bath (serosal) applications. The extract-Krebs mixture was continuously stirred for 30 minutes and filtered using analytical filter paper (Schleicher and Schuell Blue Ribbon filter paper 589/3; 0.2 μm retention). Garcinia buchananii extract and test compounds were delivered to isolated colons in Krebs solution, and evaluated for effects on pellet propulsion during 20-25 minute time intervals. Intraluminal drug deliveries (350 μL min^−1 Krebs solution) were performed using polyethylene tubing (PE 205; outside diameter 9.5 mm) inserted ˜1.5 cm into the oral end of the segments. In bath deliveries, G. buchananii extract and test compounds were superfused directly into the organ bath. Studies involving PTLC fractions were performed using the organ bath delivery method only.

The mark [2] stands for this setting: HLD rats, PTLC1 15 mg, PTLC5 3.8 mg in 100 mL tap water, loperamide 8.4 mg/L, after 24 hrs to the 4th day.
Where [3] appears, read: HLD rats, loperamide 8.4 mg/L, PTLC1 15 mg/100 mL, PTLC5 3.8 mg/100 mL.
Where [4] appears, read: bath (serosal) application, 20 min, extract 1 g/100 mL Krebs, PTLC1 15 mg, PTLC5 3.8 mg/100 mL, RS-56812 50 nmol/L, cisapride 100 nmol/L, CJ-033466 300 nmol/L, granisetron 1 μmol/L, ondansetron 0.5 μmol/L, GR-113808 5 μmol/L.
Where [5] appears, read: intraluminal delivery, 5 min, extract 2 g bark powder/100 mL Krebs, 5-HT 0.5 μmol/L, RS-56812 50 nmol/L, cisapride 100 nmol/L, CJ-033466 300 nmol/L, GR-113808 5 μM.
The mark [6] stands for this setting: intraluminal delivery, 15 min, extract 2 g bark powder/100 mL Krebs, drug concentrations as at 5 min.
The mark [7] stands for this setting: intraluminal delivery, 20 min, extract 2 g bark powder/100 mL Krebs, drug concentrations as at 5 min.

Turning to `CN(C)C(=O)C(CCN1CCC(O)(c2ccc(Cl)cc2)CC1)(c1ccccc1)c1ccccc1` [loperamide], in assay [1] (HLD rats, all doses), the “intestinal bloating / cecum distension” value is “reduced cecum distension”. Besides, in assay [1] (HLD rats, loperamide 8.4 mg/L), the cecum maximum diameter is on record as 2.0+/−0.2 cm and the fecal fluid content was 43.8±6.5%. Besides, in assay [1] (setting [2]), the “Form of stool: Hardened normal pellets” value is on record as “++++++”, the “Form of stool: Loose stool with structural form of pellet” value is recorded as “−”, the “Form of stool: Loose stools + mucous (non-structural stool)” value is on record as “−” and the “Form of stool: Soft formed pellets” value was “−”. In addition, in assay [1] (setting [2]), the “Form of stool: Watery diarrhea + mucous (incontinence or profuse)” value is given as “−”. In addition, in assay [1] (setting [3]), the body weight change was -1.33 ± 0.64 g, the food consumption came to 28.50 ± 3.58 g and the “water (fluid) consumption” value stood at 43.96 ± 7.66 mL. Besides, the “reversal of weight loss versus untreated HLD rats” value in assay [1] (loperamide 8.4 mg/L, not significant) is on record as 1.78 g.

Take `Cn1cc(C(=O)OCC2CCN(CCNS(C)(=O)=O)CC2)c2ccccc21` [GR-113808]: the “pellet propulsion, percent of normalized baseline pellet velocity” value in the assay with guinea pig distal colon (setting [4]) is recorded as “did not alter pellet propulsion”; in the assay with guinea pig distal colon (setting [5]) it was 109.3 ± 6.1%; in the assay with guinea pig distal colon (setting [6]) it was 93.2 ± 3.6%; in the assay with guinea pig distal colon (setting [7]) it was 91.7 ± 3.1%. Moreover, the “inhibition of pellet propulsion” value in the assay with guinea pig distal colon (intraluminal, after 20 minutes, extract 2 g/100 mL Krebs, granisetron 2 μM, GR-113808 5 μM) came to 10%.

For the compound `Cc1cn2c(N)c(Cl)cc(C(=O)NCC3CCN(CC(C)C)CC3)c2n1` [CJ-033466], the “pellet propulsion, percent of normalized baseline pellet velocity” value was determined as 102.8±6.5% in the assay with guinea pig distal colon (setting [4]), 132.7 ± 7.1% in the assay with guinea pig distal colon (setting [5]), 112.1 ± 6.7% with guinea pig distal colon (setting [6]) and 116.6 ± 5.6% in the assay with guinea pig distal colon (setting [7]).

`COc1cc(N)c(Cl)cc1C(=O)NC1CCN(CCCOc2ccc(F)cc2)CC1OC` (centres unmarked) [cisapride, Cisapride]: the “pellet propulsion, percent of normalized baseline pellet velocity” value is 85.0±5.5% and 85.0±5.9% in the assay with guinea pig distal colon (setting [4]); 115.6 ± 4.9% with guinea pig distal colon (setting [5]); 109.6 ± 9.3% in the assay with guinea pig distal colon (setting [6]); 122.0 ± 8.2% in the assay with guinea pig distal colon (setting [7]). Further, the “inhibition of pellet propulsion” value with guinea pig distal colon (serosal (bath) application, 20 min, extract 1 g, PTLC1 15 mg, PTLC5 3.8 mg per 100 mL Krebs, cisapride 100 nmol/L, RS-56812 50 nmol/L) is recorded as 15%.

Consider `NCCc1c[nH]c2ccc(O)cc12` [Compound 5-HT, Serotonin hydrochloride], for which the figures for the “pellet propulsion, percent of normalized baseline pellet velocity” value with guinea pig distal colon (setting [5]), with guinea pig distal colon (setting [6]) and with guinea pig distal colon (setting [7]) were 118.3 ± 16.2%, 117.6 ± 13.5% and 114.3 ± 11.9%, respectively.

On to `Cn1cc(C(=O)C(=O)NC2CN3CCC2CC3)c2ccccc21` (centres unmarked) [RS-56812], for which the “pellet propulsion, percent of normalized baseline pellet velocity” value is 103.3±4.7% in the assay on guinea pig distal colon (setting [4]), 119.7 ± 5.2% in the assay with guinea pig distal colon (setting [5]), 119.6 ± 5.4% in the assay with guinea pig distal colon (setting [6]) and 126.7 ± 9.2% with guinea pig distal colon (setting [7]).

As for `CN1C2CCCC1CC(NC(=O)c1nn(C)c3ccccc13)C2.Cl` (centres unmarked) [granisetron, granisetron hydrochloride], the “pellet propulsion, percent of normalized baseline pellet velocity” value in the assay with guinea pig distal colon (setting [4]) was determined as 101.4±7.0%; with guinea pig distal colon (setting [5]), 99.3 ± 4.2%; in the assay with guinea pig distal colon (setting [6]), 92.4 ± 1.4%; in the assay on guinea pig distal colon (setting [7]) it was 86.5 ± 3.6%.

On to `Cc1nccn1CC1CCc2c(c3ccccc3n2C)C1=O` (centres unmarked) [ondansetron, ondansetron hydrochloride], for which the “pellet propulsion, percent of normalized baseline pellet velocity” value with guinea pig distal colon (setting [4]) amounted to 111.3±9.8%.
